# From patent publication US20260285850A1, “SUBSTITUTED OXAZOLIDINONES AND IMIDAZOLINONES AS HERBICIDES” (FMC CORPORATION, priority 2023, published 2026)
# Experiments:
# Format in all cases: in vivo
# [1] = test system: barnyardgrass (Echinochloa crus-galli); assay: Test A preemergence soil spray, visual injury rating 0-100; conditions: 10 days, 0 = no effect, 100 = complete control
# Outline: (§1)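 Visual injury ratings (0, no effect; 100, complete control) were assigned relative to untreated plants 10 days after treatment. Test chemicals, formulated with a surfactant-containing non-phytotoxic solvent, were applied in loam-sand soil either as a directed soil spray before emergence or to emerged plants, and plants were kept in a greenhouse.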
# [2] = test system: blackgrass (Alopecurus myosuroides); assay: as above; conditions: 10 days, 0 = no effect, 100 = complete control
# Outline: as §1
# corn (Zea mays) [3] = assay: as above; conditions: 10 days, 0 = no effect, 100 = complete control
# Outline: as §1
# [4] = test system: green foxtail (Setaria viridis); assay: as above; conditions: 10 days, 0 = no effect, 100 = complete control
# Outline: as §1
# kochia (Bassia scoparia) [5] = assay: as above; conditions: 10 days, 0 = no effect, 100 = complete control
# Outline: as §1
# [6] = test system: oat, wild (wild oat, Avena fatua); assay: as above; conditions: 10 days, 0 = no effect, 100 = complete control
# Outline: as §1
# [7] = test system: palmer (palmer amaranth, palmer pigweed, Amaranthus palmeri); assay: as above; conditions: 10 days, 0 = no effect, 100 = complete control
# Outline: as §1
# [8] = test system: ragweed (common ragweed, Ambrosia artemisiifolia); assay: as above; conditions: 10 days, 0 = no effect, 100 = complete control
# Outline: as §1
# [9] = test system: ryegrass, Italian (italian ryegrass, Lolium multiflorum); assay: as above; conditions: 10 days, 0 = no effect, 100 = complete control
# Outline: as §1
# soybean (Glycine max) [10] = assay: as above; conditions: 10 days, 0 = no effect, 100 = complete control
# Outline: as §1
# [11] = test system: wheat (Triticum aestivum); assay: as above; conditions: 10 days, 0 = no effect, 100 = complete control
# Outline: as §1
# [12] = test system: barnyardgrass (Echinochloa crus-galli); assay: Test A postemergence application, visual injury rating 0-100; conditions: 10 days
# Outline: as §1
# [13] = test system: blackgrass (Alopecurus myosuroides); assay: as above; conditions: 10 days
# Outline: as §1
# corn (Zea mays) [14] = assay: as above; conditions: 10 days
# Outline: as §1
# [15] = test system: galium (catchweed bedstraw, Galium aparine); assay: as above; conditions: 10 days
# Outline: as §1
# [16] = test system: green foxtail (Setaria viridis); assay: as above; conditions: 10 days
# Outline: as §1
# [17] = test system: horseweed (Erigeron canadensis); assay: as above; conditions: 10 days
# Outline: as §1
# kochia (Bassia scoparia) [18] = assay: as above; conditions: 10 days
# Outline: as §1
# [19] = test system: oat, wild (wild oat, Avena fatua); assay: as above; conditions: 10 days
# Outline: as §1
# [20] = test system: palmer (palmer amaranth, palmer pigweed, Amaranthus palmeri); assay: as above; conditions: 10 days
# Outline: as §1
# [21] = test system: ragweed (common ragweed, Ambrosia artemisiifolia); assay: as above; conditions: 10 days
# Outline: as §1
# [22] = test system: ryegrass, Italian (italian ryegrass, Lolium multiflorum); assay: as above; conditions: 10 days
# Outline: as §1
# soybean (Glycine max) [23] = assay: as above; conditions: 10 days
# Outline: as §1
# [24] = test system: wheat (Triticum aestivum); assay: as above; conditions: 10 days
# Outline: as §1
# [25] = test system: barnyardgrass (Echinochloa crusgalli); assay: Test B flooded paddy test, visual plant response rating 0-100; conditions: 250 g ai/ha, Flood, applied to paddy water, evaluated after 13 days
# Outline: (§2)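 Plants were grown to the 2-leaf stage, then pots were flooded to 3 cm above the soil and test compounds were applied directly into the paddy water. Water depth was held there throughout; after 13 days in a greenhouse, injury was scored visually against untreated controls.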
# [26] = test system: ducksalad (Heteranthera limosa); assay: as above; conditions: 250 g ai/ha, Flood, applied to paddy water, evaluated after 13 days
# Outline: as §2
# rice (Oryza sativa) = assay: as above; conditions: 250 g ai/ha, Flood, applied to paddy water, evaluated after 13 days
# Outline: as §2
# [27] = test system: sedge, umbrella (small-flower umbrella sedge, Cyperus difformis); assay: as above; conditions: 250 g ai/ha, Flood, applied to paddy water, evaluated after 13 days
# Outline: as §2
# [28] = 31 g ai/ha, postemergence, 0 = no effect, 100 = complete control
# [29] = Postemergence, 125 g ai/ha, 0 is no effect, 100 is complete control
structure (smiles),measurement,setting,value
CC(C)OC(=O)C1C=CC(NC(=O)C2(C)CN(c3cc(F)cc(Cl)c3)C(=O)O2)C1 (stereo not shown) [Compound 4],Barnyardgrass plant response rating (0-100),[1]; 31 g ai/ha,50
same,Barnyardgrass plant response rating (0 to 100 scale),[1]; 125 g ai/ha,100
same,Blackgrass plant response rating (0-100),[2]; 31 g ai/ha,0
same,Blackgrass plant response rating (0 to 100 scale),[2]; 125 g ai/ha,60
same,Corn plant response rating (0-100),corn (Zea mays) [3]; 31 g ai/ha,40
same,Corn plant response rating (0 to 100 scale),corn (Zea mays) [3]; 125 g ai/ha,70
same,"Foxtail, Green plant response rating (0-100)",[4]; 31 g ai/ha,0
same,"Foxtail, Green plant response rating (0 to 100 scale)",[4]; 125 g ai/ha,100
same,Kochia plant response rating (0-100),kochia (Bassia scoparia) [5]; 31 g ai/ha,40
same,Kochia plant response rating (0 to 100 scale),kochia (Bassia scoparia) [5]; 125 g ai/ha,90
same,"Oat, Wild plant response rating (0-100)",[6]; 31 g ai/ha,50
same,"Oat, Wild plant response rating (0 to 100 scale)",[6]; 125 g ai/ha,80
same,"Amaranth, Palmer plant response rating (0-100)",[7]; 31 g ai/ha,30
same,"Amaranth, Palmer plant response rating (0 to 100 scale)",[7]; 125 g ai/ha,100
same,Ragweed plant response rating (0-100),[8]; 31 g ai/ha,0
same,Ragweed plant response rating (0 to 100 scale),[8]; 125 g ai/ha,0
same,"Ryegrass, Italian plant response rating (0-100)",[9]; 31 g ai/ha,50
same,"Ryegrass, Italian plant response rating (0 to 100 scale)",[9]; 125 g ai/ha,80
same,Soybean plant response rating (0-100),soybean (Glycine max) [10]; 31 g ai/ha,0
same,Soybean plant response rating (0 to 100 scale),soybean (Glycine max) [10]; 125 g ai/ha,70
same,Wheat plant response rating (0-100),[11]; 31 g ai/ha,40
same,Wheat plant response rating (0 to 100 scale),[11]; 125 g ai/ha,90
same,Barnyardgrass plant response rating (0-100),[12]; [28],100
same,Barnyardgrass plant response rating (0 to 100 scale),[12]; [29],100
same,Blackgrass plant response rating (0-100),[13]; [28],80
same,Blackgrass plant response rating (0 to 100 scale),[13]; [29],90
same,Corn plant response rating (0-100),corn (Zea mays) [14]; [28],90
same,Corn plant response rating (0 to 100 scale),corn (Zea mays) [14]; [29],100
same,Galium plant response rating (0-100),[15]; [28],80
same,Galium plant response rating (0 to 100 scale),[15]; [29],90
same,"Foxtail, Green plant response rating (0-100)",[16]; [28],90
same,"Foxtail, Green plant response rating (0 to 100 scale)",[16]; [29],90
same,Horseweed plant response rating (0-100),[17]; [28],0
same,Horseweed plant response rating (0 to 100 scale),[17]; [29],70
same,Kochia plant response rating (0-100),kochia (Bassia scoparia) [18]; [28],70
same,Kochia plant response rating (0 to 100 scale),kochia (Bassia scoparia) [18]; [29],80
same,"Oat, Wild plant response rating (0-100)",[19]; [28],90
same,"Oat, Wild plant response rating (0 to 100 scale)",[19]; [29],90
same,"Amaranth, Palmer plant response rating (0-100)",[20]; [28],50
same,"Amaranth, Palmer / Pigweed, Palmer plant response rating (0 to 100 scale)",[20]; [29],90
same,Ragweed plant response rating (0-100),[21]; [28],60
same,Ragweed plant response rating (0 to 100 scale),[21]; [29],80
same,"Ryegrass, Italian plant response rating (0-100)",[22]; [28],60
same,"Ryegrass, Italian plant response rating (0 to 100 scale)",[22]; [29],90
same,Soybean plant response rating (0-100),soybean (Glycine max) [23]; [28],80
same,Soybean plant response rating (0 to 100 scale),soybean (Glycine max) [23]; [29],80
same,Wheat plant response rating (0-100),[24]; [28],90
same,Wheat plant response rating (0 to 100 scale),[24]; [29],90
same,"Plant response rating, Barnyardgrass (0 to 100 scale, 0 is no effect and 100 is complete control)",[25],90
same,"Plant response rating, Ducksalad (0 to 100 scale, 0 is no effect and 100 is complete control)",[26],70
same,"Plant response rating, Rice (0 to 100 scale, 0 is no effect and 100 is complete control)",rice (Oryza sativa),20
same,"Plant response rating, Sedge, Umbrella (0 to 100 scale, 0 is no effect and 100 is complete control)",[27],95
